The record followed here is ChEMBL document CHEMBL1136708, “Structure-based design of inhibitors of human L-xylulose reductase modelled into the active site of the enzyme” (Bioorg Med Chem Lett, 2003).

For experiment [1], the target named is L-xylulose reductase (Homo sapiens) (UniProt Q7Z4W1).
Experiment [2] has the same target. Description: Protein interaction energy by using binding affinity towards human L-xylulose reductase enzyme.

Chain of L-xylulose reductase (Homo sapiens) (Q7Z4W1 whole entry): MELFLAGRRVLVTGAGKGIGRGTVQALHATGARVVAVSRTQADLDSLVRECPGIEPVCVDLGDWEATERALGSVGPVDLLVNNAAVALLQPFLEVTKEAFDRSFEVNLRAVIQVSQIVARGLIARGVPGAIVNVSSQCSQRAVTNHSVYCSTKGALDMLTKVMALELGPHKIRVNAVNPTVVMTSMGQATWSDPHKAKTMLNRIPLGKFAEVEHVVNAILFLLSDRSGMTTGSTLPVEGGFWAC

In experiment [1], `CCC(CO)C(=O)O` (stereo not given) came in with a Protein interaction energy of -41.4 kcal/M.
Same read-out and setting: the result for `CCC(O)C(=O)O` (stereo not given) reads -38.4 kcal/M.
For `CCC(C(=O)O)C(=O)O`, in experiment [2], the Protein interaction energy is -86.7 kcal/M.
With `CCCOP(=O)(O)O`, the Protein interaction energy in experiment [1] was -87.4 kcal/M.
Still for that read-out and setting: the result for `CCC(C(=O)O)c1ccc(O)cc1` (stereo not given) reads -51.6 kcal/M; that for `CCCC(=O)O`, -40.4 kcal/M.
On the same count and under the same terms, the result for `CO[PH](O)(O)OCC(=O)O` reads -114 kcal/M; that for `O=C(O)CCC(=O)O`, -114 kcal/M; that for `O=C(O)CC(C(=O)O)C(=O)O`, -163 kcal/M.
On the same count and under the same terms, the result for `CCCc1ccc(O)cc1` reads -26.9 kcal/M.
